Reference: patent US9802960B2 (MILLENNIUM PHARMACEUTICALS, INC., priority 2014, dated 2017)

Target: Human VPS34 (Homo sapiens (Human), UniProt Q8NEB9)
Assay: Human VPS34 enzyme assay (Adapta TR-FRET)
Type: biochemical
Conditions: IC50 range class

Human VPS34, sequence (Q8NEB9 whole entry): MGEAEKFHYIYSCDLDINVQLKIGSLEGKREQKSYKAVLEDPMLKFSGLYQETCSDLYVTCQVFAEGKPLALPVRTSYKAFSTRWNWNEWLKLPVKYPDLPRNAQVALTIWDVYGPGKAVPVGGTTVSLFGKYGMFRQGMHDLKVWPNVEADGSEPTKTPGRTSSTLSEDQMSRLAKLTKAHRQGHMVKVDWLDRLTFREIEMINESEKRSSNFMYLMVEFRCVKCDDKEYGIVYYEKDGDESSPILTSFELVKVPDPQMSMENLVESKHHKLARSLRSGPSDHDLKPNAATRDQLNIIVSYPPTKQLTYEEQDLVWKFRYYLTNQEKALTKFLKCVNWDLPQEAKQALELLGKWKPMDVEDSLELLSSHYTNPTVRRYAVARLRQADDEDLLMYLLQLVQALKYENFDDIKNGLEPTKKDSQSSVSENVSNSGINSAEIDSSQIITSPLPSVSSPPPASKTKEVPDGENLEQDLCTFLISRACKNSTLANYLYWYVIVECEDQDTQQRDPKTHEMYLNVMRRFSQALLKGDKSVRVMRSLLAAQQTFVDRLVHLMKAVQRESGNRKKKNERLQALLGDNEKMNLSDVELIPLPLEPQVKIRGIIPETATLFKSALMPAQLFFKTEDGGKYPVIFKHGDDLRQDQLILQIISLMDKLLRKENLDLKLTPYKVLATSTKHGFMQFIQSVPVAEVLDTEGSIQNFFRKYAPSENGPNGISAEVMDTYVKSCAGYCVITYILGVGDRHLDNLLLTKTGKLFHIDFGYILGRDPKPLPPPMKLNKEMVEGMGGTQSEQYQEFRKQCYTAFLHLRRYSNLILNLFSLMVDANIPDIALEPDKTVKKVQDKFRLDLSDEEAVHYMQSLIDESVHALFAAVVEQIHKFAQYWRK

Row | Structure (SMILES) | IC50 [nM]
1 | CC(=O)Nc1cc(-c2cnc(N)c(S(=O)(=O)NCc3cccnc3)c2)ccn1 [Compound I-19, N-{6-amino-5-[(pyridin-3-ylmethyl)sulfamoyl]-3,4′-bipyridin-2′-yl}acetamide] | 50 to 100
2 | CC(=O)Nc1cc(-c2cnc(N)c(NS(=O)(=O)c3ccc(F)cc3F)c2)ccn1 [Compound I-64, N-(6-amino-5-{[(2,4-difluorophenyl)sulfonyl]amino}-3,4′-bipyridin-2′-yl)acetamide] | < 10

Same assay, conditions: compound concentration 1.11 μM; read-out: Percent Inhibition

Row | Structure (SMILES) | inhibition at 1.11 µM [%]
3 | CC(=O)Nc1cc(-c2cnc(C)c(N3CC(N(C)C)CS3(=O)=O)c2)ccn1 (single isomer, unassigned) [Compound I-496, N-(5-(4-(dimethylamino)-1,1-dioxidoisothiazolidin-2-yl)-6-methyl-[3,4′-bipyridin]-2′-yl)acetamide] | > 99
4 | CC(=O)Nc1cc(-c2cncc(NC(=O)Cc3ccccc3)c2)ccn1 [Compound I-106, N-(2′-acetamido-3,4′-bipyridin-5-yl)-2-phenylacetamide] | 64
5 | CC(=O)Nc1cc(-c2cnc(C)c(N3CCCNS3(=O)=O)c2)ccn1 [Compound I-387, N-[5-(1,1-dioxido-1,2,6-thiadiazinan-2-yl)-6-methyl-3,4′-bipyridin-2′-yl]acetamide] | > 99
6 | CC(=O)Nc1cc(-c2cnc(N)c(S(=O)(=O)NCc3cccnc3)c2)ccn1 [Compound I-19, N-{6-amino-5-[(pyridin-3-ylmethyl)sulfamoyl]-3,4′-bipyridin-2′-yl}acetamide] | > 99
7 | CC(=O)Nc1cc(-c2cnc(C)c(S(=O)(=O)Nc3ccc(F)cc3F)c2)ccn1 [Compound I-353, N-(5-(N-(2,4-difluorophenyl)sulfamoyl)-6-methyl-[3,4′-bipyridin]-2′-yl)acetamide] | > 99
8 | COc1ncc(-c2ccnc(NC(C)=O)c2)c(C)c1NS(=O)(=O)c1ccc(F)cc1F [Compound I-248, N-(5-{[(2,4-difluorophenyl)sulfonyl]amino}-6-methoxy-4-methyl-3,4′-bipyridin-2′-yl)acetamide] | > 99
9 | CC(=O)Nc1cc(-c2cnc(C)c(NS(=O)(=O)c3ccc(C)cc3)c2)ccn1 [Compound I-80, N-(6-methyl-5-{[(4-methylphenyl)sulfonyl]amino}-3,4′-bipyridin-2′-yl)acetamide] | > 99
10 | Cc1nccc(Nc2cc(-c3cnc(C)c(OCc4ccccc4)c3)ccn2)n1 [Compound I-363, 5-(benzyloxy)-6-methyl-N-(2-methylpyrimidin-4-yl)-3,4′-bipyridin-2′-amine] | 83
11 | CC(=O)Nc1cc(-c2cncc(S(=O)(=O)Nc3ccccc3)c2)ccn1 [Compound I-459, N-[5-(phenylsulfamoyl)-3,4′-bipyridin-2′-yl]acetamide] | 96
12 | CC(=O)Nc1cc(-c2cncc(/C=C/C(=O)c3ccc(F)cc3)c2)ccn1 [Compound I-188, N-{5-[(1E)-3-(4-fluorophenyl)-3-oxoprop-1-en-1-yl]-3,4′-bipyridin-2′-yl}acetamide] | 98
13 | CC(=O)Nc1cc(-c2cnc(C)c(NS(=O)(=O)c3ccccc3Cl)c2)ccn1 [Compound I-109, N-(5-{[(2-chlorophenyl)sulfonyl]amino}-6-methyl-3,4′-bipyridin-2′-yl)acetamide] | > 99
14 | CC(=O)Nc1cc(-c2cnc(C)c(NS(=O)(=O)N3CCC(F)(F)CC3)c2)ccn1 [Compound I-374, N-(5-{[(4,4-difluoropiperidin-1-yl)sulfonyl]amino}-6-methyl-3,4′-bipyridin-2′-yl)acetamide] | > 99
15 | CC(=O)Nc1cc(-c2cnc(C#N)c(N3CCCCC3C)c2)ccn1 (stereo not drawn) [Compound I-380, N-[6-cyano-5-(2-methylpiperidin-1-yl)-3,4′-bipyridin-2′-yl]acetamide] | 95
16 | Cc1ncc(-c2ccnc(NC(=O)C3CC3)c2)cc1NS(=O)(=O)N(C)C [Compound I-311, N-{5-[(dimethylsulfamoyl)amino]-6-methyl-3,4′-bipyridin-2′-yl}cyclopropanecarboxamide] | > 99
17 | CC(=O)Nc1cc(-c2cnc(N)c(NS(=O)(=O)c3ccc(F)cc3F)c2)ccn1 [Compound I-64, N-(6-amino-5-{[(2,4-difluorophenyl)sulfonyl]amino}-3,4′-bipyridin-2′-yl)acetamide] | > 99
18 | CC(=O)Nc1cc(-c2cnc(Cl)c(NS(=O)(=O)c3cc(F)ccc3F)c2C)ccn1 [Compound I-227, N-(6-chloro-5-{[(2,5-difluorophenyl)sulfonyl]amino}-4-methyl-3,4′-bipyridin-2′-yl)acetamide] | > 99
19 | CC(=O)Nc1cc(-c2cnc(C)c(NS(=O)(=O)c3ccccc3C)c2)ccn1 [Compound I-211, N-(6-methyl-5-{[(2-methylphenyl)sulfonyl]amino}-3,4′-bipyridin-2′-yl)acetamide] | > 99
20 | Cc1nccc(Nc2cc(-c3cncc(OC4CCc5c(F)cccc54)c3)ccn2)n1 (stereo not drawn) [Compound I-440, 5-[(4-fluoro-2,3-dihydro-1H-inden-1-yl)oxy]-N-(2-methylpyrimidin-4-yl)-3,4′-bipyridin-2′-amine] | 83
21 | CC(=O)Nc1cc(-c2cnc(N)c(C(=O)NCC3CC3)c2)ccn1 [Compound I-14, 2′-acetamido-6-amino-N-(cyclopropylmethyl)-3,4′-bipyridine-5-carboxamide] | > 99
22 | CC(=O)Nc1cc(-c2cnc(C)c(NS(=O)(=O)N3CCCC3)c2)ccn1 [Compound I-274, N-{6-methyl-5-[(pyrrolidin-1-ylsulfonyl)amino]-3,4′-bipyridin-2′-yl}acetamide] | > 99

Row | Structure (SMILES) | inhibition at 1.11 µM [%]
23 | CC(=O)Nc1cc(-c2cnc(C)c(NS(=O)(=O)c3ccc(C)cc3Cl)c2)ccn1 [Compound I-128] | > 99
24 | CCOC(=O)Nc1cc(-c2cnc(Cl)c(NS(=O)(=O)c3ccc(F)cc3F)c2C)ccn1 [Compound I-383, ethyl (6-chloro-5-{[(2,4-difluorophenyl)sulfonyl]amino}-4-methyl-3,4′-bipyridin-2′-yl)carbamate] | 91
25 | CC(=O)Nc1cc(-c2cnc(C)c(NS(=O)(=O)c3ccccc3)c2)ccn1 [Compound I-84, N-{6-methyl-5-[(phenylsulfonyl)amino]-3,4′-bipyridin-2′-yl}acetamide] | > 99
26 | Cc1ncc(-c2ccnc(NC(=O)C3CC3(F)F)c2)cc1NS(=O)(=O)c1ccc(Cl)cc1F (stereo not drawn) [Compound I-441, N-(5-{[(4-chloro-2-fluorophenyl)sulfonyl]amino}-6-methyl-3,4′-bipyridin-2′-yl)-2,2-difluorocyclopropanecarboxamide] | > 99
27 | CC(=O)Nc1cc(-c2cnc(N)c(C(=O)Nc3cccc(F)c3)c2)ccn1 [Compound I-82, 2′-acetamido-6-amino-N-(3-fluorophenyl)-3,4′-bipyridine-5-carboxamide] | > 99
28 | CC(=O)Nc1cc(-c2cnc(C)c(N3CC(NCc4ccccc4)CS3(=O)=O)c2)ccn1 (stereo not drawn) [Compound I-357, N-{5-[4-(benzylamino)-1,1-dioxidoisothiazolidin-2-yl]-6-methyl-3,4′-bipyridin-2′-yl}acetamide] | > 99
29 | CC(=O)Nc1cc(-c2cncc(S(C)(=O)=O)c2)ccn1 [Compound I-51, N-[5-(methylsulfonyl)-3,4′-bipyridin-2′-yl]acetamide] | 91
30 | Cc1ncc(-c2ccnc(NC(=O)C3CC3(F)F)c2)cc1NS(=O)(=O)c1ccc(F)cc1F (stereo not drawn) [Compound I-267a, N-(5-{[(2,4-difluorophenyl)sulfonyl]amino}-6-methyl-3,4′-bipyridin-2′-yl)-2,2-difluorocyclopropanecarboxamide] | 97
31 | CC(=O)Nc1cc(-c2cnc(N)c(C(=O)Nc3cccnc3)c2)ccn1 [Compound I-91, 2′-acetamido-6-amino-N-(pyridin-3-yl)-3,4′-bipyridine-5-carboxamide] | > 99
32 | CC(=O)Nc1cc(-c2cnc3ccn(S(C)(=O)=O)c3c2)ccn1 [Compound I-33, N-{4-[1-(methylsulfonyl)-1H-pyrrolo[3,2-b]pyridin-6-yl]pyridin-2-yl}acetamide] | > 99
33 | CCN(C)S(=O)(=O)Nc1cc(-c2ccnc(NC(C)=O)c2)cnc1C [Compound I-273, N-(5-{[ethyl(methyl)sulfamoyl]amino}-6-methyl-3,4′-bipyridin-2′-yl)acetamide] | > 99
34 | CC(=O)Nc1cc(-c2cnc(Cl)c(NS(=O)(=O)c3cc(Cl)ccc3Cl)c2C)ccn1 [Compound I-401, N-(6-chloro-5-{[(2,5-dichlorophenyl)sulfonyl]amino}-4-methyl-3,4′-bipyridin-2′-yl)acetamide] | > 99
35 | CC(=O)Nc1cc(-c2cnc(C)c(NS(=O)(=O)c3ccc(F)c(F)c3)c2)ccn1 [Compound I-59, N-(5-{[(3,4-difluorophenyl)sulfonyl]amino}-6-methyl-3,4′-bipyridin-2′-yl)acetamide] | > 99
36 | CC(=O)Nc1cc(-c2cnc(C)c(NS(=O)(=O)c3cccc(F)c3F)c2)ccn1 [Compound I-377, N-(5-{[(2,3-difluorophenyl)sulfonyl]amino}-6-methyl-3,4′-bipyridin-2′-yl)acetamide] | 95
37 | CC(=O)Nc1cc(-c2cnc(N)c(C(=O)Nc3ccccc3Cl)c2)ccn1 [Compound I-136, 2′-acetamido-6-amino-N-(2-chlorophenyl)-3,4′-bipyridine-5-carboxamide] | > 99
38 | CC(=O)Nc1cc(-c2cnc(C)c(OS(=O)(=O)N(C)C)c2)ccn1 [Compound I-359, 2′-acetamido-6-methyl-3,4′-bipyridin-5-yl dimethylsulfamate] | > 99
39 | CC(=O)Nc1cc(-c2cnc(C)c(OCC3CC3)c2)ccn1 [Compound I-492, N-[5-(cyclopropylmethoxy)-6-methyl-3,4′-bipyridin-2′-yl]acetamide] | 86
40 | CC(=O)Nc1cc(-c2cnc3c(c2)CCN3)ccn1 [Compound I-67, N-[4-(2,3-dihydro-1H-pyrrolo[2,3-b]pyridin-5-yl)pyridin-2-yl]acetamide] | > 99
41 | CC(=O)Nc1cc(-c2cnc(C)c(NS(=O)(=O)c3ccc(Cl)cc3F)c2)ccn1 [Compound I-94, N-(5-{[(4-chloro-2-fluorophenyl)sulfonyl]amino}-6-methyl-3,4′-bipyridin-2′-yl)acetamide] | 98
42 | CC(=O)Nc1cc(-c2cnc3[nH]c(C)nc3c2)ccn1 [Compound I-66, N-[4-(2-methyl-3H-imidazo[4,5-b]pyridin-6-yl)pyridin-2-yl]acetamide] | 88
